Reference: PubChem BioAssay AID1996
In brackets after ≈: the same amount, converted by molar mass.

conditions: buffer; pH 7.4; 200.0 µM

Point of comparison: COCc1cc(OC)nc(-c2csc(C)n2)n1, solubility kinetic 32.5 µg/mL (≈ 129 µM). Against it:
- O=C(O)C(=O)O.c1ccc(CNC23CC4CC(CC(C4)C2)C3)nc1 — within 1.5-fold, 45.8 µg/mL
- O=C(NC1CCCC1)c1cc(=O)[nH]c2ccccc12 — within 1.5-fold, 33.6 µg/mL (≈ 131 µM)
- CCS(=O)(=O)c1ncc(CO)n1CCc1ccccc1 — higher, > 44.2 µg/mL
- Nc1ccc(-n2cc(-c3ccccc3)[nH]c2=S)cc1 — 2.6-fold lower, 12.6 µg/mL (≈ 47.1 µM)
- Cc1ccnc(N2CCC(C(=O)NCc3ccc(F)cc3)CC2)n1 — 1.9-fold lower, 16.7 µg/mL (≈ 50.9 µM)
- O=C(CN1C(=O)C(=O)N(C2CCCC2)C1=O)Nc1ccccc1OC(F)F — higher, > 57.2 µg/mL
- CC(C)C(NC(=O)C1CCCCC1)C(=O)NC1CCCC(C)C1C (stereo not given) — 8.3-fold lower, 3.9 µg/mL (≈ 11.6 µM)
- O=C1CS(=O)(=O)c2ccccc2N1 — not separable, > 29.6 µg/mL
- O=C(NC(=S)Nc1cc([N+](=O)[O-])ccc1O)C1CC1 — higher, > 42.2 µg/mL
- CC(C)n1c(NCc2ccc(Cl)cc2)nc2ccccc21 — 46-fold lower, 0.7 µg/mL (≈ 2.33 µM)
- CC(C)N(C(C)C)S(=O)(=O)c1ccc(Cl)nc1 — within 1.5-fold, 32.4 µg/mL (≈ 117 µM)
- COC(=O)Cn1c(N2CCCC2)nc2c1c(=O)n(C)c(=O)n2C — higher, > 48.2 µg/mL
- O=C(NC1CCCC1)C1CC(=O)N(c2ccccc2)C1 (stereo not given) — higher, > 40.9 µg/mL
- O=c1[nH]c2cc3ccccc3cc2nc1C(F)(F)F — 11-fold lower, 2.9 µg/mL (≈ 11 µM)
- Cn1cccc1C(=O)N1CCc2ccccc2C1 — higher, > 36 µg/mL
- c1cnc(N2CCN(c3ccc4ccccc4n3)CC2)nc1 — 25-fold lower, 1.3 µg/mL (≈ 4.46 µM)
- CN(c1ccccc1)S(=O)(=O)c1cccc(C(=O)NC2CCCC2)c1 — within 1.5-fold, 47.3 µg/mL (≈ 132 µM)
- CC(=O)N/C(N)=N/c1nc(=O)c2ccccc2s1 — 9.3-fold lower, 3.5 µg/mL (≈ 13.3 µM)
- C=CCNC(=O)COC(=O)c1ccc(Cl)c(S(N)(=O)=O)c1 — higher, > 49.9 µg/mL
- CC(=O)c1ccc(OC(=O)CN2C(=O)c3ccccc3C2=O)cc1 — higher, > 48.5 µg/mL
- S=C1NCN(Cc2ccccc2)CN1 — not separable, > 31.1 µg/mL
- Cc1ccc(S(=O)(=O)NC(=O)Nc2cc(C)no2)cc1 — higher, > 44.3 µg/mL
- O=C(NCc1ccccc1)/C(=C/c1ccco1)NC(=O)c1ccco1 — higher, > 50.5 µg/mL
- CCC(C)c1ccc(NC(=O)Nc2cccnc2)cc1 (stereo not given) — within 1.5-fold, 33.2 µg/mL (≈ 123 µM)
- O=C(COc1cccnc1[N+](=O)[O-])Nc1cccc(Br)c1 — 12-fold lower, 2.7 µg/mL (≈ 7.67 µM)
- Cc1ccc(C)c(C(=O)OCC(=O)N(C)c2ccccc2)c1 — within 1.5-fold, 38 µg/mL (≈ 128 µM)
- COc1cc(NC(=O)c2ccccc2[N+](=O)[O-])ccc1NC(=O)c1cc2ccccc2o1 — 46-fold lower, 0.7 µg/mL (≈ 1.62 µM)
- N#Cc1ccc2nc3c(nc2c1)CCCC3 — within 1.5-fold, 30.2 µg/mL (≈ 144 µM)
- CC(CCc1ccccc1)NC(=O)COC(=O)c1cccn1C (stereo not given) — higher, > 47.2 µg/mL
- CCN1CCN(CC(c2ccccc2)c2ccccc2)CC1 — within 1.5-fold, 29.1 µg/mL (≈ 98.8 µM)
- COC(=O)c1ccc(C(=O)N=c2sccn2C)cc1 — 2.3-fold lower, 13.9 µg/mL (≈ 50.3 µM)
- CC(C)Oc1cccc(OCCN2C(=O)c3ccccc3C2=O)c1 — 2.4-fold lower, 13.8 µg/mL (≈ 42.4 µM)
- Cc1c(C(=O)OCC(=O)N(C)Cc2ccccc2)oc2ccccc12 — within 1.5-fold, 23.3 µg/mL (≈ 69.1 µM)
- CCOC(=O)C1(Cc2cccc(F)c2)CCN(C(=O)COC)CC1 — within 1.5-fold, 47.2 µg/mL (≈ 140 µM)
- CC(C)[N+](C)(C)CC#CC(O)(c1ccccc1)c1ccccc1.[Br-] — 1.6-fold higher, 51 µg/mL
- Cc1ccc(NC(=O)c2cc3c(s2)CCCC3)cc1 — 8.1-fold lower, 4 µg/mL (≈ 14.7 µM)
- O=S(=O)(NC1=NCCCCC1)c1ccc(Cl)cc1 — higher, > 43 µg/mL
- Cc1ccc(C)n1-c1ccc(N2CCOCC2)c([N+](=O)[O-])c1 — within 1.5-fold, 29.3 µg/mL (≈ 97.2 µM)
- O=C(NC1CC1)c1cc(OCC(F)(F)F)ccc1OCC(F)(F)F — within 1.5-fold, 44.3 µg/mL (≈ 124 µM)
- O=C(/C=C/c1ccc([N+](=O)[O-])cc1)OCC(=O)N1CCCC1 — higher, > 45.6 µg/mL
- Cn1c(COc2ccccc2O)[n+](C)c2ccccc21.[Br-] — higher, > 52.4 µg/mL
- CC(=O)Nc1ccccc1-c1nc2cc(C#N)c(C#N)cc2[nH]c1=O — higher, > 49.4 µg/mL
- O=C(NC1=NCCS1)c1cc(Cl)ccc1Cl — within 1.5-fold, 37.1 µg/mL (≈ 135 µM)
- COc1cc(OC)c(NC(=O)/C=C/C(=O)O)cc1Cl — higher, > 42.9 µg/mL
- COc1cc(OC)cc(C(=O)NCc2ccc3c(c2)OCO3)c1 — within 1.5-fold, 46.1 µg/mL (≈ 146 µM)
- CC(=O)N/C(=N/c1nc(C)cc(C)n1)Nc1ccc(C)cc1C — 9.6-fold lower, 3.4 µg/mL (≈ 10.9 µM)
- Cc1cc(OCC(=O)NC2CC2)c2c(C)cc(=O)oc2c1 — higher, > 43.1 µg/mL
- Cc1cccc(OCc2nc(-c3ccc(Br)o3)no2)c1 — 32-fold lower, 1 µg/mL (≈ 2.98 µM)
- O=C(O)CCNC(=O)/C(=C/c1ccco1)NC(=O)c1ccco1 — higher, > 47.7 µg/mL
- CC(C)[N+](C)(CCOC(=O)C1c2ccccc2Oc2ccccc21)C(C)C.[Br-] — higher, > 67.3 µg/mL
- O=C(CN1CCN(Cc2ccccc2)CC1)NCc1ccc(Cl)cc1 — higher, > 53.7 µg/mL
- COCC(C)NC(=O)c1cc(OC)cc(OC)c1 (stereo not given) — higher, > 38 µg/mL
- CC(C)CC(NC(N)=O)C(=O)Nc1ccc2c(c1)OCO2 (stereo not given) — higher, > 44 µg/mL
- CC(N=Cc1c(O)n(C2CC2)c(=S)[nH]c1=O)c1ccccc1 (stereo not given) — 12-fold lower, 2.6 µg/mL (≈ 8.24 µM)
- COc1ccc(CNC(=O)CCn2c(=O)[nH]c3ccccc3c2=O)cc1 — 11-fold lower, 2.9 µg/mL (≈ 8.21 µM)
- COc1ccc(NC(=O)Nc2c[nH]c(=O)[nH]c2=O)cc1OC — within 1.5-fold, 44.8 µg/mL (≈ 146 µM)
- COC(=O)NCN1C(=O)C2C3C=CC(C3)C2C1=O (stereo not given) — within 1.5-fold, 34.4 µg/mL (≈ 137 µM)
- CCCCOCCCNC(=O)N[C@H](C(=O)OC)C(C)CC (stereo not given in full) — higher, > 45.4 µg/mL
- CNC(=S)NCCCc1ccccc1 — not separable, > 31.2 µg/mL
